Source: patent US20090118249A1, “DHEAS INHALATION COMPOSITIONS” (priority 2007, published 2009)

Assay: Solubility in aqueous solution
Format: physicochemical
From the text: In some cases, the DHEAS will associate with or form a complex with the divalent cation which is less soluble than the DHEAS sodium salt.

## Dehydroepiandrosterone sulfate [DHEAS-Na]
  solubility: about 17 mg/ml
